From patent US9951045B2, “Indazole compounds as 5-HT4 receptor agonists” (SUVEN LIFE SCIENCES LIMITED, priority 2013, dated 2018)
Where a name gives a salt, the structure may show the parent alone.

The molecules below were run against T1, recombinant human 5-HT4 receptor (Homo sapiens, UniProt Q13639) (assay: Determination of EC50 values for 5-HT4 receptor (CHO cells, pCRE-Luc reporter)). Conditions: luciferase reporter, 4 hours incubation, read-out: 5-HT4 receptor agonistic binding in-vitro EC50.
T1 construct: expressed in transfected cells
T1 sequence (Q13639 whole entry): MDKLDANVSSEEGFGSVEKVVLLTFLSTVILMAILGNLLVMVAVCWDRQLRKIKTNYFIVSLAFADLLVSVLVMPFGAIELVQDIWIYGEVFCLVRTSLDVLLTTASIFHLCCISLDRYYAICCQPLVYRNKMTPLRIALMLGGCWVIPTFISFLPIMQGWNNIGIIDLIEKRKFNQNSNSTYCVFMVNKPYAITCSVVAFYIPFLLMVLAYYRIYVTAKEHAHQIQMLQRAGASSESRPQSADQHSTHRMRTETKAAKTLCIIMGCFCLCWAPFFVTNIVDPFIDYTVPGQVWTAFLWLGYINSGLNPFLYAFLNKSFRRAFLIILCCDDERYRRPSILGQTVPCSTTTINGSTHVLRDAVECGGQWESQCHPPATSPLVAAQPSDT
Format: cell-based
Method: A stable CHO cell line expressing recombinant human 5-HT4 receptor and pCRE-Luc reporter system was used for cell-based assay. The assay offers a non-radioactive based approach to determine binding of a compound to GPCRs. In this specific assay, the level of intracellular cyclic AMP, which is modulated by activation, or inhibition of the receptor is measured. The recombinant cells harbor luciferase reporter gene under the control of cAMP response element.
The above cells were grown in 96 well clear bottom white plates in Hams F12 medium containing 10% fetal bovine serum (FBS). Prior to the addition of compounds or standard agonist, cells were serum starved overnight. Increasing concentrations of test compounds were added in OptiMEM medium to the cells. The incubation was continued at 37° C. in CO2 incubator for 4 hours. Medium was removed and cells were washed with phosphate buffered saline. The cells were lysed and luciferase activity was measured in a Luminometer. Luminescence units were plotted against the compound concentrations using Graphpad software. EC50 values of the compounds were defined as the concentration required in stimulating the luciferase activity by 50%.

| EC50 [nM] | SMILES |
| --- | --- |
| ≤ 1 | CC(C)N1CCC(CNC(=O)c2cccc3cn(C(C)C)nc23)CC1 [Example 13, N—(N-isopropylpiperidin-4-ylmethyl)-2-isopropyl-2H-indazole-7-carboxamide fumarate] |
| 1.1 to 5 | CC(C)n1cc2cccc(C(=O)NCC3C4CN(CC5CCOCC5)CC34)c2n1 (stereo not shown) [Example 10, N—[N-(tetrahydropyran-4-ylmethyl)-3-azabicyclo[3.1.0]hexane-6-ylmethyl]-2-isopropyl-2H-indazole-7-carboxamide] |
| ≤ 1 | CC(C)n1cc2cccc(C(=O)NCC3CCN(CC(C)(C)CO)CC3)c2n1 [Example 6, N—[N-(3-hydroxy-2,2-dimethylpropyl)piperidin-4-ylmethyl]-2-isopropyl-2H-indazole-7-carboxamide L(+) Tartarate] |
| ≤ 1 | COCCCN1CCC(CNC(=O)c2cccc3cn(C(C)C)nc23)CC1 [Example 24, N—[N-(3-methoxypropyl)piperidin-4-ylmethyl]-2-isopropyl-2H-indazole-7-carboxamide fumarate] |
| 5.1 to 20 | CC(C)n1cc2cccc(C(=O)NCC3CCN(CCF)CC3)c2n1 [Example 7, N—[N-(2-fluoroethyl)piperidin-4-ylmethyl]-2-isopropyl-2H-indazole-7-carboxamide] |
| 1.1 to 5 | COCCN1CCC(CNC(=O)c2cccc3cn(C(C)C)nc23)CC1 [Example 25, N—[N-(2-methoxyethyl)piperidin-4-ylmethyl]-2-isopropyl-2H-indazole-7-carboxamide fumarate] |
| ≤ 1 | CC(C)n1cc2cccc(C(=O)NCC3CCN(CCC(C)(C)O)CC3)c2n1 [Example 29, N—[N-(3-Hydroxy-3-methylbutyl)piperidin-4-ylmethyl]-2-isopropyl-2H-indazole-7-carboxamide] |
| ≤ 1 | CC(C)n1cc2cccc(C(=O)NCC3CCN(CC4(O)CCOCC4)CC3)c2n1 [Example 17, N—[N-(4-hydroxytetrahydropyran-4-ylmethyl)piperidin-4-ylmethyl]-2-isopropyl-2H-indazole-7-carboxamide fumarate] |
| 20.1 to 50 | CC(C)n1cc2cccc(C(=O)NCC3CN(Cc4ccccc4)CCO3)c2n1 (stereo not shown) [Example 8, N—[N-benzylmorpholin-2-ylmethyl]-2-isopropyl-2H-indazole-7-carboxamide fumarate] |
| ≤ 1 | CC(C)n1cc2cccc(C(=O)NCC3CCN(C4CCC4)CC3)c2n1 [Example 14, N—(N-cyclobutylpiperidin-4-ylmethyl)-2-isopropyl-2H-indazole-7-carboxamide fumarate] |
| ≤ 1 | CC(C)n1cc2cccc(C(=O)NCC3CCN(CC(C)(C)F)CC3)c2n1 [Example 34, N—[N-(2-fluoro-2-methylpropyl)piperidin-4-ylmethyl]-2-isopropyl-2H-indazole-7-carboxamide L(+) Tartarate] |
| ≤ 1 | CC(C)n1cc2cccc(C(=O)NCC3CCN(CC4CCOC4)CC3)c2n1 (stereo not shown) [Example 23, N—[(N-tetrahydrofuran-3-ylmethyl)piperidin-4-ylmethyl]-2-isopropyl-2H-indazole-7-carboxamide] |
| 5.1 to 20 | CC(C)n1cc2cccc(C(=O)NCC3CN(CC4CCOCC4)CCO3)c2n1 (stereo not shown) [Example 9, N—[(N-tetrahydropyran-4-ylmethyl)morpholine-2-ylmethyl]-2-isopropyl-2H-indazole-7-carboxamide] |
| 1.1 to 5 | CC(C)N1CC2C(CNC(=O)c3cccc4cn(C(C)C)nc34)C2C1 (stereo not shown) [Example 16, N—(N-isopropyl-3-azabicyclo[3.1.0]hexane-6-ylmethyl)-2-isopropyl-2H-indazole-7-carboxamide fumarate] |

The remaining lines, values behind:

| SMILES | EC50 [nM] |
| --- | --- |
| CC(C)n1cc2cccc(-c3nnc(C4CCN(C5CCOCC5)CC4)o3)c2n1 [Example 39, 2-Isopropyl-7-{5-[1-(tetrahydropyran-4-yl)piperidin-4-yl]-[1,3,4]oxadiazol-2-yl}-2H-indazole fumarate] | 1.1 to 5 |
| CCn1cc2cccc(C(=O)NCC3C4CN(C5CCOCC5)CC34)c2n1 (stereo not shown) [Example 18, N—[N-(tetrahydropyran-4-yl)-3-azabicyclo[3.1.0]hexane-6-ylmethyl]-2-ethyl-2H-indazole-7-carboxamide oxalate] | 5.1 to 20 |
| CC(C)n1cc2cccc(C(=O)NCC3(O)CCN(CC(C)(C)O)CC3)c2n1 [Example 30, N—[N-(2-hydroxy-2-methylpropyl)-4-hydroxypiperidin-4-ylmethyl]-2-isopropyl-2H-indazole-7-carboxamide oxalate] | 1.1 to 5 |
| CC(C)N1CCC(NC(=O)c2cccc3cn(C(C)C)nc23)CC1 [Example 19, N—(N-isopropylpiperidine-4-yl)-2-isopropyl-2H-indazole-7-carboxamide fumarate] | 20.1 to 50 |
| CCn1cc2cccc(C(=O)NCC3CCN(CCCOC)CC3)c2n1 [Example 4, N—[N-(3-methoxypropyl)piperidin-4-ylmethyl]-2-ethyl-2H-indazole-7-carboxamide fumarate] | ≤ 1 |
| CC(C)n1cc2cccc(C(=O)NCC3CCN(C4CCCCC4)CC3)c2n1 [Example 15, N—(N-cyclohexylpiperidin-4-ylmethyl)-2-isopropyl-2H-indazole-7-carboxamide fumarate] | ≤ 1 |
| CC(C)n1cc2cccc(C(=O)NCC3(F)CCN(CC4(O)CCOCC4)CC3)c2n1 [Example 31, N—[N-(4-hydroxytetrahydropyran-4-ylmethyl)-4-fluoropiperidin-4-ylmethyl]-2-isopropyl-2H-indazole-7-carboxamide L(+) Tartarate] | 1.1 to 5 |
| CC(C)n1cc2cccc(C(=O)NCC3(F)CCN(CC(C)(C)O)CC3)c2n1 [Example 35, N—[N-(2-hydroxy-2-methylpropyl)-4-fluoropiperidin-4-ylmethyl]-2-isopropyl-2H-indazole-7-carboxamide L(+) Tartarate] | 5.1 to 20 |
| CC(C)n1cc2cccc(C(=O)NCC3(O)CCN(C4CCOCC4)CC3)c2n1 [Example 27, N—[(N-tetrahydropyran-4-yl)-4-hydroxypiperidin-4-ylmethyl]-2-isopropyl-2H-indazole-7-carboxamide fumarate] | 1.1 to 5 |
| CCn1cc2cccc(C(=O)NCC3C4CN(CCCOC)CC34)c2n1 (stereo not shown) [Example 5, N—[N-(3-methoxypropyl)-3-azabicyclo[3.1.0]hexane-6-ylmethyl]-2-ethyl-2H-indazole-7-carboxamide oxalate] | 1.1 to 5 |
| COCCCN1CCC(c2nnc(-c3cccc4cn(C(C)C)nc34)o2)CC1 [Example 37, 2-isopropyl-7-{5-[1-(3-methoxypropyl)piperidin-4-yl]-[1,3,4]oxadiazol-2-yl)}-2H-indazole fumarate] | 5.1 to 20 |
| COCCCN1CCC(O)(CNC(=O)c2cccc3cn(C(C)C)nc23)CC1 [Example 28, N—[N-(3-methoxypropyl)-4-hydroxypiperidin-4-ylmethyl]-2-isopropyl-2H-indazole-7-carboxamide fumarate] | 1.1 to 5 |
| CC(C)n1cc2cccc(C(=O)NCC3C4CN(C5CCOCC5)CC34)c2n1 (stereo not shown) [Example 12, N—[N-(tetrahydropyran-4-yl)-3-azabicyclo[3.1.0]hexane-6-ylmethyl]-2-isopropyl-2H-indazole-7-carboxamide] | 1.1 to 5 |
| CC(C)n1cc2cccc(-c3nnc(C4CCN(CC5CCOCC5)CC4)o3)c2n1 [Example 38, 2-Isopropyl-7-{5-[1-(tetrahydropyran-4-ylmethyl)piperidin-4-yl]-[1,3,4]oxadiazol-2-yl}-2H-indazole fumarate] | 5.1 to 20 |
